Patent US5596002A, “Method of treating chloroquine-resistant malaria with aminoquinoline derivatives” (Hoffmann-La Roche Inc., priority 1993, dated 1997)
Values after ≈ are worked out from the molar mass of the structure shown. Read-outs that look alike come from different tables or passages of the source.

Tests used:
[1] = test system: Plasmodium falciparum, chloroquine-sensitive strain FCH5C2; assay: activity against P. falciparum in vitro, strain FCH5C2; format: cell-based; details: chloroquine-sensitive strain FCH5C2, 48 h-72 h, read-out: IC50 (50% growth inhibition)
Procedure, shortened: (§1)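 Asynchronous cultures, human A+ RBC, 0.7% parasitemia/2.5% Hct; RPMI 1640 + 25 mM HEPES, 25 mM NaHCO3, 10% human serum; 37° C, 3% O2, 4% CO2, 93% N2; 48 h-72 h. ^3H-hypoxanthine uptake; IC50 via logit regression.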

[2] = test system: Plasmodium berghei (strain ANKA); assay: activity against Plasmodium berghei in vivo (infected mice); details: mice; for ED50: single administration po, dose reducing average erythrocyte infection rate by 50%, read-out: ED50 (po); for inhibition in vivo at 10 mg/kg: 48 hours after treatment (D+3)
Experimental: Test method for the determination of the activity against Plasmodium berghei in vivo
The preparations according to the present invention were tested on mice infected with malaria pathogens (Plasmodium berghei). Male albino mice (IBM:MORO(SPF), FUELLINSDORF) weighing about 25 g were used as the test animals. They were kept in climatized rooms at 21°-22° C. in groups of 5 animals per cage. They received ad libitum a diet feed with a low PABA content ("NAFAG FUTTER" No. 9009 PAB-45, PABA content 45 mg/kg) and drinking water. On the first day of the test (D0) the test animals were infected with Plasmodium berghei (strain ANKA). For this there was used heparinized blood of a donor mouse with about 30% parasitemia, which was diluted with physiological saline such that it contains 10^8 parasitized erythrocytes per ml. 0.2 ml of this suspension was injected intravenously (i.v.) into the mice to be treated and into the control mice. In untreated control animals the parasitemia normally reaches 30-40% on the third day after the infection (D+3) and the test animals die between days +5 and +7.
The substances to be tested were dissolved or suspended in distilled water or in a mixture of 7% Tween 80, 3% alcohol (96%) and water. Usually, 0.25 ml of this solution or suspension was administered once subcutaneously and perorally to groups of 5 test animals. Treatment was effected 24 hours after the infection. 10 control animals were treated in the same manner with solvent or suspension medium per test.
All substances were tested in a first test in a single dosage of 10 mg/kg. Only those substances which in this test (10 mg/kg) had shown a parasitaemia reduction of 90% were used for the titration.
48 hours after the treatment (D+3), blood smears were prepared from all animals using blood from tail veins and were stained with Giemsa. The average erythrocyte infection rate (parasitemia in %) in the control groups as well as in the groups which had been treated with the test compounds was determined by counting under a microscope. The difference in the average values of the infection rates of control group (100%) and treated groups was calculated and expressed as a percentage reduction (GI %). The ED50 or ED90 was determined mathematically by means of the JMP programme (nonlinear fit). The ED50 (ED90) in mg/kg is that dose which after single administration reduces the average erythrocyte infection rate by 50% (90%) in comparison to the control group.
Table 2 below contains data with respect to the activity measured against Plasmodium berghei in mice: GI % is the percentage reduction in the parasitemia after a single dose of 10 mg/kg of the test substance administered perorally (po) or subcutaneously (sc); ED50 and ED90 are the effective doses of the test substance administered perorally or subcutaneously.

[3] = test system: Plasmodium falciparum, chloroquine-resistant strain ItG2 F6; assay: activity against P. falciparum in vitro, strain ItG2 F6; format: cell-based; details: chloroquine-resistant strain ItG2 F6, 48 h-72 h, read-out: IC50 (50% growth inhibition)
Procedure, shortened: as §1

[4] = test system: Plasmodium falciparum, chloroquine-resistant strain Indo; assay: activity against P. falciparum in vitro, strain Indo; format: cell-based; details: chloroquine-resistant strain Indo, 48 h-72 h, read-out: IC50 (50% growth inhibition)
Procedure, shortened: as §1

[5] = test system: Plasmodium falciparum, chloroquine-sensitive strain NF54; assay: activity against P. falciparum in vitro, strain NF54; format: cell-based; details: Plasmodium falciparum; chloroquine-sensitive strain NF54; 48 h-72 h; read-out: IC50 (50% growth inhibition)
Procedure, shortened: as §1

[6] = test system: Plasmodium falciparum, chloroquine-sensitive strain Ro7 3; assay: activity against P. falciparum in vitro, strain Ro7 3; format: cell-based; details: chloroquine-sensitive strain Ro7 3, 48 h-72 h, read-out: IC50 (50% growth inhibition)
Experimental: (§2) Test method for the determination of the activity against P. falciparum in vitro
(§3) The preparations of the present invention were tested on intraerythrocytary stages of P. falciparum from asynchronous cultures according to the method of Desjardin et al. (Desjardins, R. E. et al: Quantitative assessment of antimalarial activity in vitro by a semiautomated microdilution technique. Antimicrob. Agents Chemother. 16, 710-718, (1979)).
(§4) The culture medium consisted of RPMI 1640 with the addition of 25 mM HEPES, 25 mM NaHCO3, […] neomycin and 10% human serum (A^+). Human-A^+ erythrocytes were used as the P. falciparum host cells. The parasites were maintained at 37° C. in an atmosphere of 3% O2, 4% CO2, 93% N2 and at 95% relative humidity.
(§5) In order to determine the activity, the preparations were dissolved in DMSO, pre-diluted in the culture medium to a suitable starting concentration and subsequently titrated-out into microtitre plates in the 2nd stage over 6-7 steps. After the addition of the parasite culture (0.7% parasitemia in 2.5% erythrocyte suspension), the test plates were incubated under the conditions given above for 48 h-72 h. The parasite growth in the different preparation concentrations was determined using [G-^3 H]-hypoxanthin incorporation compared to untreated control cultures on the same test plates. The 50% growth inhibition (IC50) was calculated according to logit regression analysis from the resulting dosage-activity curve.
(§6) The preparations were tested on at least one chloroquine-resistant and one chloroquine-sensitive P. falciparum strain. Additional sensitive and resistant strains were also included for further characterization.
(§7) Table 1 below contains the IC50 values measured in vitro for the growth inhibition of chloroquine-sensitive and chloroquine-resistant strains of the human pathogenic Plasmodium falciparum.

[7] = test system: Plasmodium falciparum, chloroquine-resistant strain RFCR3; assay: activity against P. falciparum in vitro, strain RFCR3; format: cell-based; details: chloroquine-resistant strain RFCR3, 48 h-72 h, read-out: IC50 (50% growth inhibition)
Procedure, shortened: as §1

[8] = test system: Plasmodium falciparum, chloroquine-resistant strain W2; assay: activity against P. falciparum in vitro, strain W2; format: cell-based; details: chloroquine-resistant strain W2, 48 h-72 h, read-out: IC50 (50% growth inhibition)
Procedure, shortened: as §1

[9] = test system: Plasmodium falciparum, chloroquine-sensitive strain HB3; assay: activity against P. falciparum in vitro, strain HB3; format: cell-based; details: chloroquine-sensitive strain HB3, 48 h-72 h, read-out: IC50 (50% growth inhibition)
Procedure, shortened: as §1

[10] = test system: Plasmodium falciparum, chloroquine-resistant strain K1; assay: activity against P. falciparum in vitro, strain K1; format: cell-based; details: Plasmodium falciparum; chloroquine-resistant strain K1; 48 h-72 h; read-out: IC50 (50% growth inhibition)
Procedure, shortened: as §1

[11] = test system: Plasmodium falciparum, chloroquine-resistant strain W2 Mef; assay: activity against P. falciparum in vitro, strain W2 Mef; format: cell-based; details: 48 h-72 h, read-out: IC50 (50% growth inhibition)
Procedure, shortened: as §1

[12] = test system: Plasmodium falciparum, chloroquine-sensitive strain RFMEF3; assay: activity against P. falciparum in vitro, strain RFMEF3; format: cell-based; details: chloroquine-sensitive strain RFMEF3, 48 h-72 h, read-out: IC50 (50% growth inhibition)
Experimental: as §2, §3, §4, §5, §6, §7

[13] = test system: Plasmodium falciparum, chloroquine-resistant strain 7G8; assay: activity against P. falciparum in vitro, strain 7G8; format: cell-based; details: chloroquine-resistant strain 7G8, 48 h-72 h, read-out: IC50 (50% growth inhibition)
Procedure, shortened: as §1

[14] = single dose 10 mg/kg po, read-out: GI % at 10 mg/kg (po): percentage reduction in the parasitemia
[15] = single dose 10 mg/kg sc, read-out: GI % at 10 mg/kg (sc): percentage reduction in the parasitemia

SMILES | IC50 [1] | ED50 [2] | inhibition in vivo at 10 mg/kg [2, 14] | inhibition in vivo at 10 mg/kg [2, 15] | IC50 [3] | IC50 [4] | IC50 [5] | IC50 [6] | IC50 [7] | IC50 [8] | IC50 [9] | IC50 [10] | IC50 [11] | IC50 [12] | IC50 [13]
CC(CN(C)C)Nc1ccnc2cc(Cl)ccc12 (racemic) [Example 1, (RS)-N2-(7-Chloro-quinolin-4-yl)-N1,N1-dimethyl-propane-1,2-diamine] | 8 ng/mL (≈ 0.0303 µM) | 2.3 mg/kg | 99.9% | 99.9% | 4 ng/mL (≈ 0.0152 µM) | 8 ng/mL (≈ 0.0303 µM) | 4 ng/mL (≈ 0.0152 µM) | 5 ng/mL (≈ 0.019 µM) | 15 ng/mL (≈ 0.0569 µM) | 9 ng/mL (≈ 0.0341 µM) | 7 ng/mL (≈ 0.0265 µM) | 9 ng/mL (≈ 0.0341 µM) | 7 ng/mL (≈ 0.0265 µM) | 7 ng/mL (≈ 0.0265 µM) | 9 ng/mL (≈ 0.0341 µM)
CCN(CC)CC(C)Nc1ccnc2cc(Cl)ccc12 (racemic) [Example 2, (RS)-N2-(7-Chloro-quinolin-4-yl)-N1,N1-diethyl-propane-1,2-diamine] | 7 ng/mL (≈ 0.024 µM) | 3.2 mg/kg | 99.8% | 99.9% | 5 ng/mL (≈ 0.0171 µM) | 6 ng/mL (≈ 0.0206 µM) | 7 ng/mL (≈ 0.024 µM) | 6 ng/mL (≈ 0.0206 µM) | 8 ng/mL (≈ 0.0274 µM) | 8 ng/mL (≈ 0.0274 µM) | 7 ng/mL (≈ 0.024 µM) | 14 ng/mL (≈ 0.048 µM) | 9 ng/mL (≈ 0.0308 µM) | 7 ng/mL (≈ 0.024 µM) | 8 ng/mL (≈ 0.0274 µM)
CCN(CC)[C@@H]1CCCC[C@H]1Nc1ccnc2cc(Cl)ccc12 (racemic) [Example 9, (1RS,2RS)-N1-(7-Chloro-quinolin-4-yl)-N2,N2-diethyl-cyclohexane-1,2-diamine] | 15 ng/mL (≈ 0.0452 µM) | 4.4 mg/kg | 99% | 99.6% | 17 ng/mL (≈ 0.0512 µM) | 18 ng/mL (≈ 0.0542 µM) | 11 ng/mL (≈ 0.0331 µM) | 11 ng/mL (≈ 0.0331 µM) | 17 ng/mL (≈ 0.0512 µM) | 31 ng/mL (≈ 0.0934 µM) | 14 ng/mL (≈ 0.0422 µM) | 32 ng/mL (≈ 0.0964 µM) | 25 ng/mL (≈ 0.0753 µM) | 12 ng/mL (≈ 0.0362 µM) | 30 ng/mL (≈ 0.0904 µM)
Clc1ccc2c(N[C@@H]3CCCC[C@H]3N3CCCC3)ccnc2c1 (racemic) [Example 10, (1RS,2RS)-(7-Chloro-quinolin-4-yl)-(2pyrrolidin-1-yl-cyclohexyl)-amine] | 5 ng/mL (≈ 0.0152 µM) | 6.4 mg/kg | 99% | 99% | 7 ng/mL (≈ 0.0212 µM) | 16 ng/mL (≈ 0.0485 µM) | 7 ng/mL (≈ 0.0212 µM) | 7 ng/mL (≈ 0.0212 µM) | 18 ng/mL (≈ 0.0546 µM) | 13 ng/mL (≈ 0.0394 µM) | 8 ng/mL (≈ 0.0243 µM) | 17 ng/mL (≈ 0.0515 µM) | 15 ng/mL (≈ 0.0455 µM) | 6 ng/mL (≈ 0.0182 µM) | 15 ng/mL (≈ 0.0455 µM)
CCN(CC)[C@@H]1CCC[C@H]1Nc1ccnc2cc(Cl)ccc12 (racemic) [Example 11, (1RS,2RS)-N1-(7-Chloro-quinolin-4-yl)-N2,N2-diethyl-cyclopentane-1,2-diamine] | 7 ng/mL (≈ 0.022 µM) | 2.2 mg/kg | 99.9% | 99.9% | 6 ng/mL (≈ 0.0189 µM) | 10 ng/mL (≈ 0.0315 µM) | 5 ng/mL (≈ 0.0157 µM) | 5 ng/mL (≈ 0.0157 µM) | 13 ng/mL (≈ 0.0409 µM) | 15 ng/mL (≈ 0.0472 µM) | 6 ng/mL (≈ 0.0189 µM) | 18 ng/mL (≈ 0.0566 µM) | 9 ng/mL (≈ 0.0283 µM) | 6 ng/mL (≈ 0.0189 µM) | 9 ng/mL (≈ 0.0283 µM)
CN1CCCC(Nc2ccnc3cc(Cl)ccc23)C1 (racemic) [Example 19a, (RS)-(7-Chloro-quinolin-4-yl)-(1-methyl-piperidin-3-yl)-amine] | 7 ng/mL (≈ 0.0254 µM) | 2.4 mg/kg | 99.9% | 99.9% | 5 ng/mL (≈ 0.0181 µM) | 8 ng/mL (≈ 0.029 µM) | 6 ng/mL (≈ 0.0218 µM) | 5 ng/mL (≈ 0.0181 µM) | 11 ng/mL (≈ 0.0399 µM) | 10 ng/mL (≈ 0.0363 µM) | 6 ng/mL (≈ 0.0218 µM) | 9 ng/mL (≈ 0.0326 µM) | 6 ng/mL (≈ 0.0218 µM) | 7 ng/mL (≈ 0.0254 µM) | 8 ng/mL (≈ 0.029 µM)
